Experimental data: patent US8741964B2, “Uses of nonenal” (Industry-Academic Cooperation Foundation, Yonsei University, priority 2011, dated 2014)

Assays:
[1] = tested on: rats; conditions: cited from earlier work
[2] = tested on: aP2; assay: RT-PCR analysis of visceral fat tissues: aP2 gene expression; format: in vivo, mice; conditions: nonenal supplemented to the HFD vs HFD; to levels similar for the Chow group
Excerpt: (§1) The obesity-inducing control diet used in the test was high-fat diet (HFD: 40% fat calorie, 17 g lard+3% corn oil/100 g diet). Diets supplemented with nonenal (nonenal-supplemented high fat diet, NED) had the same composition as HFD, except that nonenal was included at 0.2% (see Table 1). The normal diet group (Chow) was fed with commercially available rodent chow. Nonenal was purchased from Sigma-Aldrich.
(§2) 5-week-old male C57BL/6J mice (Orient, Korea) were accustomed to the laboratory environment for 1 week while feeding solid feed. Then, they were randomly divided into normal diet, high-fat diet and test groups and bred for a total of 10 weeks. The diet was given between 10 and 11 a.m. every day together with water. Food intake was measured every day and body weight was measured once a week. In order to avoid transient body weight increase after feed intake, body weight was measured 2 hours after removing the feed. […]
(§3) After adding 1 mL of Trizol agent per 0.1 g of visceral fat tissues, the mixture was homogenized and centrifuged at 12,000×g for 10 min at 4° C. […] The RNA sample concentration was measured at a wavelength of 260 nm and 280 nm using a UV/VIS spectrophotometer (Beckman coulter, DU730) and the integrity of RNA sample was verified by agarose gel electrophoresis. […]

[3] = tested on: IL-6; assay: RT-PCR analysis of visceral fat tissues: IL-6 gene expression; format: in vivo, mice; conditions: feeding nonenal in HFD vs HFD
Excerpt: as §1, §2, §3

[4] = tested on: TNF-α; assay: RT-PCR analysis of visceral fat tissues: TNF-α gene expression; format: in vivo, mice; conditions: feeding nonenal in HFD vs HFD
Excerpt: as §1, §2, §3

[5] = tested on: C57BL/6J mice; assay: Analysis of lipid level in liver tissues of mice fed test diets; format: in vivo; conditions: 0.2% nonenal in high-fat diet, 10 weeks, as compared to HFD
Excerpt: as §1
(§4) 5-week-old male C57BL/6J mice (Orient, Korea) were accustomed to the laboratory environment for 1 week while feeding solid feed. Then, they were randomly divided into normal diet, high-fat diet and test groups and bred for a total of 10 weeks. The diet was given between 10 and 11 a.m. every day together with water. Food intake was measured every day and body weight was measured once a week. In order to avoid transient body weight increase after feed intake, body weight was measured 2 hours after removing the feed. After fasting the test animal for at least 12 hours and anesthetizing with diethyl ether, blood, liver and visceral fat (epididymal fat, perirenal fat, mesenteric fat and retroperitoneal fat) were taken and weighed after washing with 0.1 M PBS (pH 7.4). Blood taken from the abdominal aorta was centrifuged at 1000×g for 15 minutes for the separation of plasma.
Lipids were extracted from the liver tissue according to Folch et al.'s method Folch J et al., J Biol. Chem. 226: 497-509 (1957)). After adding 1 mL of distilled water to 0.25 g of liver tissue, the liver tissue was homogenized using a Polytron homogenizer (IKA-Werke GmbH & Co., Ultra-Turrax, Staufen, Germany). After adding 5 mL of chloroform:methanol solution (2:1, v/v) to the homogenate and mixing well, the mixture was centrifuged at 1000×g for 10 minutes. After adding 2 mL of chloroform:methanol solution (2:1, v/v) again to the supernatant, the same procedure was repeated to completely separate the lipid components of the liver. […] The dried lipids were dissolved in 1 mL of methanol and then analyzed. […]

[6] = tested on: C/EBPα; assay: RT-PCR analysis of visceral fat tissues: C/EBPα gene expression; format: in vivo, mice; conditions: nonenal supplemented to the HFD vs HFD; to levels similar for the Chow group
Excerpt: as §1, §2, §3

[7] = tested on: PPARγ2; assay: RT-PCR analysis of visceral fat tissues: PPARγ2 gene expression; format: in vivo, mice; conditions: nonenal supplemented to the HFD vs HFD; to levels similar for the Chow group
Excerpt: as §1, §2, §3

[8] = tested on: microbial growth; conditions: cited from earlier work
[9] = tested on: C57BL/6J mice; assay: Biochemical analysis of blood (plasma lipids, glucose, ALT, AST) of mice fed test diets; format: in vivo; conditions: 10 weeks
Excerpt: as §1, §4
After 10 weeks of breeding, total cholesterol, triglyceride and glucose levels in the plasma and lipid levels in the liver tissue were measured as follows. Total cholesterol, triglyceride, free fatty acid and glucose levels in the plasma were measured twice for each using a commercially available kit (Bio Clinical System). The activity of ALT (alanine aminotransferase) and AST (aspartate aminotransferase) used as liver function indicator were measured twice for each using a commercially available kit (Bio Clinical System, Korea).

[10] = tested on: C57BL/6J mice; assay: Body weight, food intake and visceral fat-pad weights of mice fed test diets for 10 weeks; format: in vivo
Excerpt: as §1, §4

[11] = 0.2% nonenal in high-fat diet, as compared to HFD
[12] = 0.2% nonenal in high-fat diet, as compared to HFD group

Compound: CCCCCC/C=C/C=O [nonenal, trans-2-nonenal]
- LD50 [1]: more than 5,000 mg/kg
- expression of aP2 gene (mRNA) in visceral fat tissues [2]: significantly decreased
- HFD-induced elevation in the expression of IL-6 in visceral fat tissues [3]: significantly reversed
- HFD-induced elevation in the expression of TNF-α in visceral fat tissues [4]: significantly reversed
- decrease of cholesterol level in liver tissue [5]: 75%
- decrease of free fatty acid level in liver tissue [5]: 74%
- decrease of triglyceride level in liver tissue [5]: 78%
- expression of C/EBPα gene (mRNA) in visceral fat tissues [6]: significantly decreased
- expression of PPARγ2 gene (mRNA) in visceral fat tissues [7]: significantly decreased
- microbial growth inhibitory effects [8]: microbial growth inhibitory effects
- reduction of fasting blood sugar level [9, 11]: 31%
- lowering of plasma LDL+VLDL cholesterol level [9, 12]: 20%
- lowering of plasma free fatty acid level [9, 12]: 41%
- lowering of plasma total cholesterol level [9, 12]: 19%
- lowering of plasma triglyceride level [9, 12]: 37%
- decrease of plasma activity of ALT ([9]; NED group vs HFD group): 28%
- decrease of plasma activity of AST ([9]; NED group vs HFD group): 31%
- decrease of body weight gain ([10]; 0.2% nonenal in high-fat diet (NED), as compared to HFD): 49%
- weight of epididymal fat-pad [10, 11]: significantly reduced
- weight of mesenteric fat-pad [10, 11]: significantly reduced
- weight of perirenal fat-pad [10, 11]: significantly reduced
- weight of retroperitoneal fat-pad [10, 11]: significantly reduced
- reduction of total visceral fat weight ([10]; NED group vs HFD group): 59%
